Experimental data as given in PMC8296573, “Synthesis and Biological Evaluation of Fingolimod Derivatives as Antibacterial Agents” (ACS Omega, 2021).
Values after ≈ are worked out from the molar mass of the structure shown. Where two headings read alike, the source gives them in different places.

Tests used:
[1] = tested on: S. aureus ATCC 25923; assay: Antibacterial activity, pre-exposure (planktonic cells and biofilm formation); format: cell-based, Staphylococcus aureus; settings: for MIC / inhibition at 5 µM / inhibition at 10 µM / inhibition at 15 µM / inhibition at 25 µM: Staphylococcus aureus, ATCC25923; for inhibition at 5 µM / inhibition at 10 µM / inhibition at 15 µM / inhibition at 25 µM / Average inhibition %, biofilms viability / Average inhibition %, planktonic cells viability: pre-exposure, ± SD
Procedure, shortened: (§1)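 Compounds in DMSO were plated before bacteria were added (pre-exposure) and incubated 18 h aerobically at 37 °C with shaking. Planktonic cells were read by OD and resazurin fluorescence (20 μM final; ex 560/em 590 nm). Biofilms were read by resazurin, then crystal violet (A595) for total biomass.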

[2] = tested on: S. aureus ATCC 25923; assay: Antibacterial activity, post-exposure on preformed 18-h-old biofilms; format: cell-based, Staphylococcus aureus; settings: for Average inhibition %, biofilms viability / Average inhibition %, planktonic cells viability / inhibition at 25 µM / inhibition at 50 µM / inhibition at 100 µM / inhibition at 200 µM: ± SD; for inhibition at 25 µM / inhibition at 50 µM / inhibition at 100 µM / inhibition at 200 µM: Staphylococcus aureus; for inhibition at 25 µM: ATCC25923, 25 µM; for inhibition at 50 µM: ATCC25923, 50 µM; for inhibition at 100 µM: ATCC25923, 100 µM; for inhibition at 200 µM: ATCC25923, 200 µM
Procedure, shortened: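 Biofilms grown 18 h without compound, medium then replaced and compound added for a further 24 h. Planktonic OD and resazurin (20 μM final) fluorescence (ex 560/em 590 nm) read; washed biofilms stained with 20 μM resazurin 30 min at 37 °C, then ethanol-fixed and crystal violet-stained, absorbance 595 nm.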

[3] = tested on: A. baumannii NCTC 13423; assay: Antibacterial activity, pre-exposure; format: cell-based, Acinetobacter baumannii; settings: for Average inhibition %, biofilms viability / Average inhibition %, planktonic cells viability / inhibition at 10 µM / inhibition at 15 µM / inhibition at 25 µM / inhibition at 50 µM: A. baumannii NCTC 13423, pre-exposure, ± SD; for inhibition at 10 µM / inhibition at 15 µM / inhibition at 25 µM / inhibition at 50 µM / MIC: Acinetobacter baumannii, NCTC13423
Procedure, shortened: as §1

[4] = tested on: P. aeruginosa ATCC 9027; assay: Antibacterial activity, pre-exposure; format: cell-based, Pseudomonas aeruginosa; settings: for Average inhibition %, biofilms viability / Average inhibition %, planktonic cells viability / inhibition at 50 µM / inhibition at 100 µM / inhibition at 150 µM / inhibition at 200 µM: P. aeruginosa ATCC 9027, pre-exposure, ± SD; for MIC / inhibition at 50 µM / inhibition at 100 µM / inhibition at 150 µM / inhibition at 200 µM: Pseudomonas aeruginosa; for inhibition at 50 µM / inhibition at 100 µM / inhibition at 150 µM / inhibition at 200 µM: ATCC9027
Procedure, shortened: as §1

[5] = 10 µM, read-out: Average inhibition %, biofilms biomass
[6] = 10 µM, read-out: Average inhibition %, planktonic cells turbidity
[7] = 15 µM, read-out: Average inhibition %, biofilms biomass
[8] = 15 µM, read-out: Average inhibition %, planktonic cells turbidity
[9] = 25 µM, read-out: Average inhibition %, biofilms biomass
[10] = 25 µM, read-out: Average inhibition %, planktonic cells turbidity
[11] = read-out: Average inhibition %, biofilms biomass
[12] = read-out: Average inhibition %, planktonic cells turbidity
[13] = 50 µM, read-out: Average inhibition %, biofilms biomass
[14] = 50 µM, read-out: Average inhibition %, planktonic cells turbidity

CCCCCCCCc1ccc2ccc(CC(N)(CO)CO)nc2c1 [Compound 82, 2-Amino-2-[(7-octylquinolin-2-yl)methyl]propane-1,3-diol]
MIC ([1]; lowest concentration with no visible growth (>90% inhibition of turbidity and viability of planktonic cells), 18 h, read-out: MIC S. aureus ATCC 25923): 15 µM (≈ 5.17 µg/mL)
inhibition at 5 µM ([1]; 5 µM, read-out: Average inhibition %, biofilms biomass): 41.7 ± 5.1%
inhibition at 5 µM ([1]; 5 µM, read-out: Average inhibition %, planktonic cells turbidity): 32.8 ± 33.4%
inhibition at 10 µM [1, 5]: 67.2 ± 23.4%
inhibition at 10 µM [1, 6]: 61.5 ± 33.3%
inhibition at 15 µM [1, 7]: 94.4 ± 4.6%
inhibition at 15 µM [1, 8]: 99.9 ± 0.1%
inhibition at 25 µM [1, 9]: 93 ± 5.8%
inhibition at 25 µM [1, 10]: 99.9 ± 0.1%
MIC ([1]; read-out: MIC (S. aureus)): 15 µM (≈ 5.17 µg/mL)
MIC S. aureus ATCC 25923 ([1]; lowest concentration with no visible growth (>90% inhibition of turbidity and viability of planktonic cells), 18 h): same MIC as fingolimod
Average inhibition %, biofilms viability ([1]; 5 µM): 34.4 ± 13.6%
Average inhibition %, planktonic cells viability ([1]; 5 µM): 6.1 ± 10.6%
Average inhibition %, biofilms viability ([1]; 10 µM): 63.5 ± 30.9%
Average inhibition %, planktonic cells viability ([1]; 10 µM): 33 ± 57.1%
Average inhibition %, biofilms viability ([1]; 15 µM): 99.7 ± 0.3%
Average inhibition %, planktonic cells viability ([1]; 15 µM): 99.6 ± 0%
Average inhibition %, biofilms viability ([1]; 25 µM): 99.7 ± 0.4%
Average inhibition %, planktonic cells viability ([1]; 25 µM): 99.7 ± 0%
Average inhibition %, biofilms viability ([2]; 25 µM): 11.8 ± 8.4%
Average inhibition %, planktonic cells viability ([2]; 25 µM): 0 ± 0%
Average inhibition %, biofilms viability ([2]; 50 µM): 27.8 ± 14.6%
Average inhibition %, planktonic cells viability ([2]; 50 µM): 17.9 ± 25.5%
Inhibition of viability and total biomass of preformed biofilms ([2]; 100 μM): at least 70%
Average inhibition %, biofilms viability ([2]; 100 µM): 81.5 ± 32.8%
Average inhibition %, planktonic cells viability ([2]; 100 µM): 94.5 ± 10%
Average inhibition %, biofilms viability ([2]; 200 µM): 100.2 ± 0.2%
Average inhibition %, planktonic cells viability ([2]; 200 µM): 100.5 ± 0.5%
inhibition at 25 µM [2, 11]: 45.6 ± 7.5%
inhibition at 25 µM [2, 12]: 14.1 ± 11.7%
inhibition at 50 µM [2, 11]: 51.6 ± 10.3%
inhibition at 50 µM [2, 12]: 34.6 ± 28.4%
inhibition at 100 µM [2, 11]: 79.6 ± 17%
inhibition at 100 µM [2, 12]: 79.1 ± 11.5%
inhibition at 200 µM [2, 11]: 79.8 ± 5.7%
inhibition at 200 µM [2, 12]: 77.9 ± 10%
Average inhibition %, biofilms viability ([3]; 10 µM): 3.9 ± 5.3%
Average inhibition %, planktonic cells viability ([3]; 10 µM): 10.4 ± 9%
Average inhibition %, biofilms viability ([3]; 15 µM): 96.5 ± 6%
Average inhibition %, planktonic cells viability ([3]; 15 µM): 99.5 ± 0.5%
Average inhibition %, biofilms viability ([3]; 25 µM): 100.7 ± 1.1%
Average inhibition %, planktonic cells viability ([3]; 25 µM): 99.7 ± 0%
Average inhibition %, biofilms viability ([3]; 50 µM): 99 ± 1.3%
Average inhibition %, planktonic cells viability ([3]; 50 µM): 99.6 ± 0%
inhibition at 10 µM [3, 5]: 13.3 ± 12.9%
inhibition at 10 µM [3, 6]: 1 ± 1.4%
inhibition at 15 µM [3, 7]: 74.7 ± 11.1%
inhibition at 15 µM [3, 8]: 98.3 ± 2.5%
inhibition at 25 µM [3, 9]: 88.6 ± 7.8%
inhibition at 25 µM [3, 10]: 99.8%
inhibition at 50 µM [3, 13]: 82.6 ± 12.7%
inhibition at 50 µM [3, 14]: 99.4 ± 0.1%
MIC ([3]; pre-exposure, Inactive = no activity up to 50 μM, > = some inhibition but no MIC reached, read-out: MIC A. baumannii NCTC 13423): 15 µM (≈ 5.17 µg/mL)
MIC ([3]; supplementary molecular formula strings sheet, read-out: MIC (A. baumannii)): 15 µM (≈ 5.17 µg/mL)
Average inhibition %, biofilms viability ([4]; 50 µM): 6.4 ± 5.7%
Average inhibition %, planktonic cells viability ([4]; 50 µM): 53.2 ± 3.8%
Average inhibition %, biofilms viability ([4]; 100 µM): 8.3 ± 8.6%
Average inhibition %, planktonic cells viability ([4]; 100 µM): 48.1 ± 18.4%
Average inhibition %, biofilms viability ([4]; 150 µM): 3.5 ± 6%
Average inhibition %, planktonic cells viability ([4]; 150 µM): 57.4 ± 19%
Average inhibition %, biofilms viability ([4]; 200 µM): 31.5 ± 49.1%
Average inhibition %, planktonic cells viability ([4]; 200 µM): 51.6 ± 41.5%
MIC ([4]; ATCC9027, pre-exposure, Inactive = no activity up to 200 μM, > = some inhibition but no MIC reached, read-out: MIC P. aeruginosa ATCC 9027): > 200 µM
MIC ([4]; ATCC9027, supplementary molecular formula strings sheet, read-out: MIC (P. aeruginosa)): > 200 µM
inhibition at 50 µM [4, 13]: 7.6 ± 7%
inhibition at 50 µM [4, 14]: 46.8 ± 2.3%
inhibition at 100 µM ([4]; 100 µM, read-out: Average inhibition %, biofilms biomass): 1.8 ± 2.7%
inhibition at 100 µM ([4]; 100 µM, read-out: Average inhibition %, planktonic cells turbidity): 51.6 ± 8.5%
inhibition at 150 µM ([4]; 150 µM, read-out: Average inhibition %, biofilms biomass): 2.7 ± 4.8%
inhibition at 150 µM ([4]; 150 µM, read-out: Average inhibition %, planktonic cells turbidity): 61.3 ± 19.9%
inhibition at 200 µM ([4]; 200 µM, read-out: Average inhibition %, biofilms biomass): 27.5 ± 24.4%
inhibition at 200 µM ([4]; 200 µM, read-out: Average inhibition %, planktonic cells turbidity): 75.7 ± 14.1%
